Data published in US20220402948A1, “EGFR INHIBITOR, COMPOSITION AND PREPARATION METHOD THEREFOR” (BETTA PHARMACEUTICALS CO., LTD., priority 2019, published 2022).
Like-named read-outs stand apart in the source and are kept apart here.

How the values were obtained:
IGF1R = IGF1R (Homo sapiens, UniProt P08069); assay: IGF1R kinase test (mobility variation analysis, Caliper EZ Reader); type: biochemical; conditions: kinase enzymatic activity, Table 1; read-out: EGFR IGF1R IC50
Summary of the method: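 Mobility-shift readout of substrate conversion, normalised to positive (no compound) and negative (no kinase) controls, gives % inhibition and IC50 by four-parameter fit. Compounds, 3-fold dilutions over 10 concentrations starting at 3000 nM, preincubated 10 min with kinase before ATP/substrate start; room temperature.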

[1] = target: Ba/F3 cells with EGFR Δ19del/T790M/C797S mutation gene stably overexpressed (Homo sapiens, UniProt P00533, T790M/C797S, cells depend on it, form not given); assay: Ba/F3-Δ19del/T790M/C797S cell proliferation assay (CellTiter Glo, 72 hours); type: cell-based
Summary of the method: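 Ba/F3 cells stably overexpressing wild-type EGFR or EGFR Δ19del/T790M/C797S were seeded at 2000 cells/well and incubated 72 h with compound. Viability was read by CellTiter-Glo luminescence, and IC50 came from a four-parameter logistic fit of signal against log concentration.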

[2] = target: Ba/F3-EGFR wild-type cell line (Homo sapiens, UniProt P00533); assay: Ba/F3-EGFR wild-type cell proliferation assay (CellTiter Glo, 72 hours); type: cell-based; conditions: Table 2, read-out: EGFR WT IC50
Method: Cell line: Ba/F3 cells with EGFR Δ19del/T790M/C797S mutation gene stably overexpressed named Ba/F3-Δ119del/T90M/C797S, and A431 and Ba/F3-EGFR wild-type cell line.
a) Centrifuge the growth cells in logarithmic phase at 1000 rpm for 5 minutes, resuspend the cells in culture medium, and then count the cells;
b) Inoculate the cells into a 96-well cell culture plate with a density of 2000 cells/well;
b) Incubate cells in an incubator for another 72 hours.
a) Take out the 96-well cell culture plate and add 50 μl CTG reagent (CellTiter Glo kit, promega, Cat #G7573);
b) Shake the plate for 2 minutes and let cool at room temperature for 10 minutes;
c) Read luminous signal value with PerkinElmer reader,
Analysis of Experimental Data
The data were analyzed by GraphPad Prism 6.0 software to obtain the fitting curve of compound activity.
Y=Min+(Max−Min)/(1+10^((Log IC50−X)*slope));
X: Logarithm of compound concentration; Y: luminous signal.

A431 = A431 cell proliferation assay (CellTiter Glo, 72 hours); type: cell-based; conditions: Homo sapiens, A-431, 72 h
Summary of the method: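 Luminescence (CellTiter-Glo) after 72 h treatment gives viability, fitted by nonlinear regression to yield IC50. Cells seeded at 2000 per well; nine 3-fold concentrations from 1000 nM, DMSO final 0.1% (0.5% for certain compounds).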

EGFRΔ19del/T790M/C797S = EGFRΔ19del/T790M/C797S (Homo sapiens, UniProt P00533, T790M/C797S, form not given); assay: EGFR Δ19del/T790M/C797S kinase test (mobility variation analysis, Caliper EZ Reader); type: biochemical; conditions: kinase enzymatic activity, Table 1
Summary of the method: (§1)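 Read-out is substrate-to-product conversion by mobility shift, stopped after incubation at room temperature with ATP and substrate, following a 10-minute room-temperature compound–enzyme pre-incubation. IC50 obtained by four-parameter variable-slope fitting of inhibition normalized between enzyme-free and uninhibited controls.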

EGFR WT = EGFR WT (Homo sapiens, UniProt P00533); assay: EGFR WT kinase test (mobility variation analysis, Caliper EZ Reader); type: biochemical; conditions: kinase enzymatic activity, Table 1
Summary of the method: as §1

[3] = Table 2, read-out: EGFR Δ19del/T790M/C797S IC50
[4] = cell proliferation, A431, 72 hours, Table 2, read-out: A431 IC50

Sequence of EGFRΔ19del/T790M/C797S (P00533 with tags, fused parts or gaps DEL746-750/T790M/C797S, form open): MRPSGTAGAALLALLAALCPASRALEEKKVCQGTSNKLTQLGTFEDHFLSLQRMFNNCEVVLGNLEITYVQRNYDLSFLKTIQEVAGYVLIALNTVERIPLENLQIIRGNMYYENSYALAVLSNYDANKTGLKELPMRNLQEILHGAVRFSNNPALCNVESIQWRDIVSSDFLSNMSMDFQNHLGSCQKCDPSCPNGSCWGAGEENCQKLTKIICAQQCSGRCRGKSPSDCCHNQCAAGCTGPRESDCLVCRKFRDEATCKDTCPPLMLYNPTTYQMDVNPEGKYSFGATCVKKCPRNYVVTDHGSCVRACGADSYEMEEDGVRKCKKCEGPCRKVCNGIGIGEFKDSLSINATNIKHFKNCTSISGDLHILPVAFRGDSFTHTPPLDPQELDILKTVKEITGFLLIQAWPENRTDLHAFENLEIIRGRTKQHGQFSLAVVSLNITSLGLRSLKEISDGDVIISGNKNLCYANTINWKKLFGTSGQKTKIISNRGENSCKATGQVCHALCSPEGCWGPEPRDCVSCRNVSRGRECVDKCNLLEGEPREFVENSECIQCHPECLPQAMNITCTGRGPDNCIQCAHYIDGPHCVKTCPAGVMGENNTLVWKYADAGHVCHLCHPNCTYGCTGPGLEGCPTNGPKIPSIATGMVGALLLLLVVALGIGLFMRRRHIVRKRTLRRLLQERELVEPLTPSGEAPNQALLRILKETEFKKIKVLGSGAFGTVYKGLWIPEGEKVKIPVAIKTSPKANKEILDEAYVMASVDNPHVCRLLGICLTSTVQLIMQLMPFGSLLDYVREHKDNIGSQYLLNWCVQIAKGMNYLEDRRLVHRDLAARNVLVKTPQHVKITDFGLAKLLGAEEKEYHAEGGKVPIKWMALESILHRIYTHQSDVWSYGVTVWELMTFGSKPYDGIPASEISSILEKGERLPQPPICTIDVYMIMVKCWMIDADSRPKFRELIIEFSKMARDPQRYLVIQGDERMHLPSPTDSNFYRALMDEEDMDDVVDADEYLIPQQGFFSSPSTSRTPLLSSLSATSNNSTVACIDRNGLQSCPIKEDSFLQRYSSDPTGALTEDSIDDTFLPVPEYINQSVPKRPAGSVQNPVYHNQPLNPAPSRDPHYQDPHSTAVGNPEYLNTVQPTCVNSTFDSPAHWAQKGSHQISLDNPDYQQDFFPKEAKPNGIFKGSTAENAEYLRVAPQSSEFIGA
Sequence of Ba/F3 cells with EGFR Δ19del/T790M/C797S mutation gene stably overexpressed (P00533 with tags, fused parts or gaps DEL746-750/T790M/C797S, form open): as above
Sequence of Ba/F3-EGFR wild-type cell line (P00533 whole entry, stated change not applied): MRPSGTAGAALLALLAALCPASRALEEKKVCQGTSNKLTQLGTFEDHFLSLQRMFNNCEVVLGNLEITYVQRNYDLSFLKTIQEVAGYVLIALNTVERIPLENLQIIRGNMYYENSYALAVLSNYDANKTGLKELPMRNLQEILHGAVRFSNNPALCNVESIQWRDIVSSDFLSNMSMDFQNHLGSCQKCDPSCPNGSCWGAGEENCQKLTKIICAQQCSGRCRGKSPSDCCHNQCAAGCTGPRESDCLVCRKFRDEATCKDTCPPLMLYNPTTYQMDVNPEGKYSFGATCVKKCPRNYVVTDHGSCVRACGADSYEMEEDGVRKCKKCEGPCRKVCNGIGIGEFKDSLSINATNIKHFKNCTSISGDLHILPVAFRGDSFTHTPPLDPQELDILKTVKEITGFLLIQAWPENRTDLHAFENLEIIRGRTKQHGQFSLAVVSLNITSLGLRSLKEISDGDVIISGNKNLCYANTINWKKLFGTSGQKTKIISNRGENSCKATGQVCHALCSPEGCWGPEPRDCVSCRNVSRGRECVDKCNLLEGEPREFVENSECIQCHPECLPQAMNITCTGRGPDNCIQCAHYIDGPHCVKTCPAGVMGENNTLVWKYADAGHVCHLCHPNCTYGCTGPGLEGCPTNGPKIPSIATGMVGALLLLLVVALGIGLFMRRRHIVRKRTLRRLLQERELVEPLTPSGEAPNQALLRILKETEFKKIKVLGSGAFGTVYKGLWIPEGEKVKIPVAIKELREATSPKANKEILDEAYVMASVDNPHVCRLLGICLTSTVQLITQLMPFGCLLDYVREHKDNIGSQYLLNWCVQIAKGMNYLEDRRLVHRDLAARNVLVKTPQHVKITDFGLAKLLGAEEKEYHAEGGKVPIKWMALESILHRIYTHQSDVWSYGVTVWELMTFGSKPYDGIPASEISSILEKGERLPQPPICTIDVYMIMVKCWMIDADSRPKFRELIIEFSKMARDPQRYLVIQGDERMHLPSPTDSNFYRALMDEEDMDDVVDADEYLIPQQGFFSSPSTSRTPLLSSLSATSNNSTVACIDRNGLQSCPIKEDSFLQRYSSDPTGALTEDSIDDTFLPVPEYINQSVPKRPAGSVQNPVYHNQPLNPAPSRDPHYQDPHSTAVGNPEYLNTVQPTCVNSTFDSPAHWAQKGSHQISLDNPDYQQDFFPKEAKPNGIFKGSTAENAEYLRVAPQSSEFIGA
Sequence of IGF1R (P08069 31-1367, species assumed): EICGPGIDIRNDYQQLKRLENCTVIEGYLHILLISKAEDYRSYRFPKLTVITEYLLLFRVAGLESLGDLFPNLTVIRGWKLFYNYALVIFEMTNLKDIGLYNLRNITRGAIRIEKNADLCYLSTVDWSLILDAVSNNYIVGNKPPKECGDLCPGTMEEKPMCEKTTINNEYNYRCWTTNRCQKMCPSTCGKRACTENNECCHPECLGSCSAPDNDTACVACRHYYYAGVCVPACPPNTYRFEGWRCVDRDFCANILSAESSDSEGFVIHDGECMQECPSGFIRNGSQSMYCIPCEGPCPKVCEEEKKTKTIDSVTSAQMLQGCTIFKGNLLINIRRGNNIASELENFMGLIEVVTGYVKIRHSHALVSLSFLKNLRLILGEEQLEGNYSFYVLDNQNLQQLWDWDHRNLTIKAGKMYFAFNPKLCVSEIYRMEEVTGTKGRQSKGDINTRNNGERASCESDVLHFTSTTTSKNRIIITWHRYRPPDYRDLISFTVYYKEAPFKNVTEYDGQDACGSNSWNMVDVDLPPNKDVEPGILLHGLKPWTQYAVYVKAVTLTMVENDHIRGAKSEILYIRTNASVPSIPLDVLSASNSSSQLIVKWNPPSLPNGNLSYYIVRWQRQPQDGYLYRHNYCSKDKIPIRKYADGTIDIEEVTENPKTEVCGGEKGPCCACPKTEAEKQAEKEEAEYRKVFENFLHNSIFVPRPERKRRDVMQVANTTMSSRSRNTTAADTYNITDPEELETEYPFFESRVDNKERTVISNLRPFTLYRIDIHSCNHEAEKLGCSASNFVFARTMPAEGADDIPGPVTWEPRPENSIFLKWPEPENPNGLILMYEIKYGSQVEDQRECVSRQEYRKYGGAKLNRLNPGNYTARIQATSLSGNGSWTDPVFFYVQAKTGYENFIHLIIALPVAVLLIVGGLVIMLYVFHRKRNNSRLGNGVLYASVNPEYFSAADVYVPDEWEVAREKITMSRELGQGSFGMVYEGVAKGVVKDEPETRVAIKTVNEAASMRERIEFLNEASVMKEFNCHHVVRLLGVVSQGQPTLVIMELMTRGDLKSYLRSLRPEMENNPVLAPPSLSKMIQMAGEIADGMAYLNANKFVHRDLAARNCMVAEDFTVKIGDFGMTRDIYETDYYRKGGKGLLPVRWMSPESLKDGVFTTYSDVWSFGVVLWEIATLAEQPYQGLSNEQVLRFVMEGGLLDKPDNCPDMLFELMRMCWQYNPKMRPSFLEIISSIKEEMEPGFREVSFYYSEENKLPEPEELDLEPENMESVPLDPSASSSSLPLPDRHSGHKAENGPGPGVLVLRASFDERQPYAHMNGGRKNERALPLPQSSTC

Row | IC50 (IGF1R) | GI50 [2] | IC50 (EGFRΔ19del/T790M/C797S) | IC50 (EGFR WT) | GI50 [1, 3] | IC50 (A431; [4]) | SMILES | GI50 ([1]; read-out: EGFR Δ19del/T790M/C797S IC50, Table 2) | IC50 (A431; read-out: A431 IC50(nM))
1 | 91.5 nM | 171 nM | 0.5 nM | 10.3 nM | 2.2 nM | 935 nM | CCc1cc(Nc2ncc(Br)c(Nc3ccc(-c4ccccc4)cc3P(C)(C)=O)n2)c(OC)cc1N1CCC(N2CCN(C)CC2)CC1 [Compound 1] | – | –
2 | 53.7 nM | 107 nM | 0.3 nM | – | 4.5 nM | 602 nM | CCc1cc(Nc2ncc(Br)c(Nc3ccc(-c4cnn(C)c4)cc3P(C)(C)=O)n2)c(OC)cc1N1CCC(N2CCN(C)CC2)CC1 [Compound 3, (2-((5-Bromo-2-((5-ethyl-2-methoxy-4-(4-(4-methylpiperazin-1-yl)piperidin-1-yl)phenyl)amino)pyrimidin-4-yl)amino)-5-(1-methyl-1hydro-pyrazol-4-yl)phenyl)dimethylphosphine oxide] | – | –
3 | – | 141 nM | 0.4 nM | – | 5.4 nM | 564 nM | CCc1cc(Nc2ncc(Br)c(Nc3ccc(-c4ccco4)cc3P(C)(C)=O)n2)c(OC)cc1N1CCC(N2CCN(C)CC2)CC1 [Compound 16, (2-((5-Bromo-2-((5-ethyl-2-methoxy-4-(4-(4-methylpiperazin-1-yl)piperidin-1-yl)phenyl)amino)pyrimidin-4-yl)amino)-5-(furan-2-yl)phenyl)dimethylphosphine oxide] | – | –
4 | 102 nM | 162 nM | 0.4 nM | 18.9 nM | 5.1 nM | 1030 nM | CCc1cc(Nc2ncc(Br)c(Nc3ccc(-c4ncccn4)cc3P(C)(C)=O)n2)c(OC)cc1N1CCC(N2CCN(C)CC2)CC1 [Compound 26, (2-((5-Bromo-2-((5-ethyl-2-methoxy-4-(4-(4-methylpiperazin-1-yl)piperidin-1-yl)phenyl)amino)pyrimidin-4-yl)amino)-5-(pyrimidin-2-yl)phenyl)dimethylphosphine oxide] | – | –
5 | 72 nM | 159 nM | 0.3 nM | 15.6 nM | 7.5 nM | 871 nM | CCc1cc(Nc2ncc(Br)c(Nc3ccc(-c4ncco4)cc3P(C)(C)=O)n2)c(OC)cc1N1CCC(N2CCN(C)CC2)CC1 [Compound 27] | – | –
6 | 61 nM | 171 nM | 0.2 nM | 12 nM | 9.9 nM | 778 nM | CCc1cc(Nc2ncc(Br)c(Nc3ccc(-c4cscn4)cc3P(C)(C)=O)n2)c(OC)cc1N1CCC(N2CCN(C)CC2)CC1 [Compound 28, (2-((5-Bromo-2-((5-ethyl-2-methoxy-4-(4-(4-methylpiperazin-1-yl)piperidin-1-yl)phenyl)amino)pyrimidin-4-yl)amino)-5-(thiazol-4-yl)phenyl)dimethylphosphine oxide] | – | –
7 | 179 nM | 559 nM | 0.3 nM | 27.6 nM | 20.8 nM | 1030 nM | CCc1cc(Nc2ncc(Br)c(Nc3ccc(-c4ncn(C)n4)cc3P(C)(C)=O)n2)c(OC)cc1N1CCC(N2CCN(C)CC2)CC1 [Compound 31, (2-((5-Bromo-2-((5-ethyl-2-methoxy-4-(4-(4-methylpiperazin-1-yl)piperidin-1-yl)phenyl)amino)pyrimidin-4-yl)amino)-5-(1-methyl-1H-1,2,4-triazol-3-yl)phenyl)dimethylphosphine oxide] | – | –

Continued, compound first:

Row | SMILES | IC50 (IGF1R) | GI50 [2] | IC50 (EGFRΔ19del/T790M/C797S) | IC50 (EGFR WT) | GI50 [1, 3] | IC50 (A431; [4]) | GI50 ([1]; read-out: EGFR Δ19del/T790M/C797S IC50, Table 2) | IC50 (A431; read-out: A431 IC50(nM))
8 | COc1cc(N2CCC(N3CCN(C)CC3)CC2)ccc1Nc1ncc(Cl)c(Nc2ccccc2P(C)(C)=O)n1 [Brigatinib, reference compound] | 23.4 nM | 22.5 nM | – | – | – | – | 64.9 nM | 309 nM
9 | CCc1cc(Nc2ncc(Br)c(Nc3ccc(-c4cnn(CC)c4)cc3P(C)(C)=O)n2)c(OC)cc1N1CCC(N2CCN(C)CC2)CC1 [Compound 4, (2-((5-Bromo-2-((5-ethyl-2-methoxy-4-(4-(4-methylpiperazin-1-yl)piperidin-1-yl)phenyl)amino)pyrimidin-4-yl)amino)-5-(1-ethyl-1hydro-pyrazol-4-yl)phenyl)dimethylphosphine oxide] | 71.9 nM | 84.3 nM | 0.6 nM | – | 1.9 nM | 465 nM | – | –
10 | CCc1cc(Nc2ncc(Br)c(Nc3ccc(-c4cnn(C)n4)cc3P(C)(C)=O)n2)c(OC)cc1N1CCC(N2CCN(C)CC2)CC1 [Compound 8, (2-((5-Bromo-2-((5-ethyl-2-methoxy-4-(4(4-methylpiperazin-1-yl)piperidin-1-yl)phenyl)amino)pyrimidin-4-yl)amino)-5-(2-methyl-2H-1,2,3-triazol-4-yl)phenyl)dimethylphosphine oxide] | 67.9 nM | 181 nM | 0.4 nM | 10.8 nM | 3.3 nM | 773 nM | – | –
11 | CCc1cc(Nc2ncc(Cl)c(Nc3ccc(-c4ncc(OC)cn4)cc3P(C)(C)=O)n2)c(OC)cc1N1CCC(N2CCN(C)CC2)CC1 [Compound 20, (2-((5-Chloro-2-((5-ethyl-2-methoxy-4-(4-(4-methylpiperazin-1-yl)piperidin-1-yl)phenyl)amino)pyrimidin-4-yl)amino)-5-(5-methoxypyrimidin-2-yl)phenyl)dimethylphosphine oxide] | 120 nM | 365 nM | 0.5 nM | 19 nM | 11.8 nM | 1470 nM | – | –
12 | CCc1cc(Nc2ncc(Br)c(Nc3ccc(-c4ncc(F)cn4)cc3P(C)(C)=O)n2)c(OC)cc1N1CCC(N2CCN(C)CC2)CC1 [Compound 29, (2-((5-Bromo-2-((5-ethyl-2-methoxy-4-(4-(4-methylpiperazin-1-yl)piperidin-1-yl)phenyl)amino)pyrimidin-4-yl)amino)-5-(5-fluoropyrimidin-2-yl)phenyl)dimethylphosphine oxide] | 80 nM | 194 nM | 0.2 nM | 16 nM | 13.4 nM | 2660 nM | – | –
13 | CCc1cc(Nc2ncc(Cl)c(Nc3ccc(-c4cnccn4)cc3P(C)(C)=O)n2)c(OC)cc1N1CCC(N2CCN(C)CC2)CC1 [Compound 32, (2-((5-Chloro-2-((5-ethyl-2-methoxy-4-(4-(4-methylpiperazin-1-yl)piperidin-1-yl)phenyl)amino)pyrimidin-4-yl)amino)-5-(pyrazin-2-yl)phenyl)dimethylphosphine oxide] | 184 nM | 196 nM | 0.4 nM | 19.3 nM | 17.8 nM | 749 nM | – | –
14 | COc1cnn(-c2ccc(Nc3nc(Nc4cc(-c5cnn(C)c5)c(N5CCN(C6CCCC6)CC5)cc4OC)ncc3Br)c(P(C)(C)=O)c2)c1 [Compound K-081] | – | 52.1 nM | – | – | 1 nM | 379 nM | – | –
15 | COc1cnn(-c2ccc(Nc3nc(Nc4cc(-c5cnn(C)c5)c(N5CCN(C(C)=O)CC5)cc4OC)ncc3Br)c(P(C)(C)=O)c2)c1 [Compound K-082] | – | 2960 nM | – | – | 11.4 nM | 1260 nM | – | –
16 | COc1cn(-c2ccc(Nc3nc(Nc4cc(-c5cnn(C)c5)c(N5CCN(c6cccnc6)CC5)cc4OC)ncc3Br)c(P(C)(C)=O)c2)cn1 [Compound K-083, (2-((5-Bromo-2-((2-methoxy-5-(1-methyl-1H-pyrazol-4-yl)-4-(4-(pyridin-3-yl)Piperazin-1-yl)phenyl)amino)pyrimidin-4-yl)amino)-5-(4-methoxy-1H-imidazol-1-yl)phenyl)dimethylphosphine oxide] | – | 113 nM | – | – | 1 nM | 910 nM | – | –
17 | COc1cc(N2CCC(N3CCN(C)CC3)CC2)ccc1Nc1ncc(Cl)c(Nc2ccc(C)cc2P(C)(C)=O)n1 [compound 1, reference compound] | 44.1 nM | 836 nM | – | 60 nM | 49.9 nM | 598 nM | – | –
